Data from ChEMBL document CHEMBL1129884, “Hindered rotation congeners of mazapertine: High affinity ligands for the 5-HT1A receptor” (Bioorg Med Chem Lett, 1997).
One block for each compound: values may come before it.

Experiments:
[1] = molecular target: Serotonin 3 (5-HT3) receptor (Homo sapiens) (UniProt P46098+A5X5Y0+O95264+Q70Z44+Q8WXA8); experiment: Compound was measured for its binding affinity at 5-hydroxytryptamine 3 receptor at a concentration of 10 uM using [3H]BRL-43694 as radioligand; type: protein-complex assay
[2] = molecular target: Serotonin 2 (5-HT2) receptor (Homo sapiens) (UniProt P41595+P28223+P28335); experiment: Compound was measured for its binding affinity at 5-hydroxytryptamine 2 receptor at a concentration of 10 uM using [3H]ketanserin as radioligand; type: protein assay
[3] = molecular target: T1, 5-hydroxytryptamine receptor 1A (Homo sapiens, UniProt P08908); experiment: Compound was measured […] for its binding affinity at 5-hydroxytryptamine 1A receptor using [3H]8-OH-DPAT as radioligand
T1 sequence (P08908 whole entry): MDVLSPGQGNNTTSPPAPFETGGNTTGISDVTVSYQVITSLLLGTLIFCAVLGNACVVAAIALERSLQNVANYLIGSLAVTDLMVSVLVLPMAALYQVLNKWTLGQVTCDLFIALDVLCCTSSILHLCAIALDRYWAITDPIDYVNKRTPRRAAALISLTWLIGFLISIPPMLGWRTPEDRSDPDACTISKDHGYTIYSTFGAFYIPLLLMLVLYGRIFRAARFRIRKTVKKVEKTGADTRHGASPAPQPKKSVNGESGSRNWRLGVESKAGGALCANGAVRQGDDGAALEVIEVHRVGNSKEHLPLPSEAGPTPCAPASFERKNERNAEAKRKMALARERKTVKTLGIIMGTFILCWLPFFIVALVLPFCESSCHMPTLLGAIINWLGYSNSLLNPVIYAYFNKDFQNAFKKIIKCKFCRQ

[4] = molecular target: D(2) dopamine receptor (Homo sapiens, UniProt P14416)
Description: Compound was measured in vivo for its binding affinity at Dopamine receptor D2 using [3H]spiperone as radioligand.

[5] = molecular target: T2, D(3) dopamine receptor (Homo sapiens, UniProt P35462); experiment: Compound was measured […] for its inhibition of Dopamine receptor D3 at a concentration of 100 nM
[6] = molecular target: D(1A) dopamine receptor (Homo sapiens) (UniProt P21728); experiment: Compound was measured for its binding affinity at Dopamine receptor D1 at a concentration of 10 uM using [3H]SCH-23390 as radioligand
[7] = molecular target: T3, Adrenergic receptor alpha-1 (Homo sapiens, UniProt P35348+P25100+P35368); experiment: Compound was measured […] for its binding affinity at Alpha-1 adrenergic receptor using [3H]prazosin as radioligand.
T3 sequence (P35348 whole entry): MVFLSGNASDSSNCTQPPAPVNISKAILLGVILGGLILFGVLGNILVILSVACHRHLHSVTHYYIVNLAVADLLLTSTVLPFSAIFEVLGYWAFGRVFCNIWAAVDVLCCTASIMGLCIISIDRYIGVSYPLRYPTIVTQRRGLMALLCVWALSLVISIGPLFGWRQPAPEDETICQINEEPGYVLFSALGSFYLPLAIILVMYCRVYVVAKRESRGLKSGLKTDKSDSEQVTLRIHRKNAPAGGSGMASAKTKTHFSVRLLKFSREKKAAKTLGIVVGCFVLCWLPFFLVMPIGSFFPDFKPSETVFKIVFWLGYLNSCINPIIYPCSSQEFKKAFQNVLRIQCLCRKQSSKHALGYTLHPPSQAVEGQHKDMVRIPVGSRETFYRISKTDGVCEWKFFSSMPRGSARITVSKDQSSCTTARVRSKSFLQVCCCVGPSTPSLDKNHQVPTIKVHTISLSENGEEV
T3 sequence (P25100 whole entry): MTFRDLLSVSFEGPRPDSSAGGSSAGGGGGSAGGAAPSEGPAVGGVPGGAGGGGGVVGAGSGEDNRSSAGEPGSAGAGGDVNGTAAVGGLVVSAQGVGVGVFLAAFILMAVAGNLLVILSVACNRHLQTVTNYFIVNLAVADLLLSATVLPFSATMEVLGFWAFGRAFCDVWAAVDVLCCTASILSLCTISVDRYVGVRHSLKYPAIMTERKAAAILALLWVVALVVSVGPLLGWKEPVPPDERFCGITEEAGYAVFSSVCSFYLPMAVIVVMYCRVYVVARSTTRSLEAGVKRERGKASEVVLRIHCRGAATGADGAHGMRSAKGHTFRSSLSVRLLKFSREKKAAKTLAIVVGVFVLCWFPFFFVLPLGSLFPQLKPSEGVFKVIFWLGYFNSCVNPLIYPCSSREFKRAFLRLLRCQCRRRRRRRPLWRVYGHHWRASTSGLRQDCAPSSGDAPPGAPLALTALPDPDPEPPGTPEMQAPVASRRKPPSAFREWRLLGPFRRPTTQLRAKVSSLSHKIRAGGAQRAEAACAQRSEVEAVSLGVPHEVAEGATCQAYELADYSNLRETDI
T3 sequence (P35368 whole entry): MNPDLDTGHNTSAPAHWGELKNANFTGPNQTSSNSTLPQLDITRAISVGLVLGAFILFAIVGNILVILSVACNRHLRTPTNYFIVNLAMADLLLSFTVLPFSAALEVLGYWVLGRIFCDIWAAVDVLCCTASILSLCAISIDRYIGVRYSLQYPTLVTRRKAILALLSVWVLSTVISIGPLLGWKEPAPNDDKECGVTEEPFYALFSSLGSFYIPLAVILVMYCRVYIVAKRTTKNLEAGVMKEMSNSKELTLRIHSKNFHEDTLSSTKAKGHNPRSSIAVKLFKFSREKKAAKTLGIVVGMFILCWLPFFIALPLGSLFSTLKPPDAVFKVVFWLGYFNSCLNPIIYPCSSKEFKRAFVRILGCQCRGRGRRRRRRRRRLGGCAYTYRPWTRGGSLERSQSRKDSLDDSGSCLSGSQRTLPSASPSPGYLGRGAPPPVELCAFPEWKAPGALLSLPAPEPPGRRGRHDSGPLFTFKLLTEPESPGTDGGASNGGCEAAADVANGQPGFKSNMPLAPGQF

[8] = molecular target: 5-hydroxytryptamine receptor 1B (Homo sapiens) (UniProt P28222); experiment: Compound was measured for its binding affinity at 5-hydroxytryptamine 1B receptor at a concentration of 100 nM using [125I]CYP as radioligand
[9] = molecular target: T4, 5-hydroxytryptamine receptor 2C (Homo sapiens) (UniProt P28335); experiment: Compound was measured for its binding affinity at 5-hydroxytryptamine 1C receptor at a concentration of 100 nM using [3H]mesulergine as radioligand
T4 sequence (whole entry): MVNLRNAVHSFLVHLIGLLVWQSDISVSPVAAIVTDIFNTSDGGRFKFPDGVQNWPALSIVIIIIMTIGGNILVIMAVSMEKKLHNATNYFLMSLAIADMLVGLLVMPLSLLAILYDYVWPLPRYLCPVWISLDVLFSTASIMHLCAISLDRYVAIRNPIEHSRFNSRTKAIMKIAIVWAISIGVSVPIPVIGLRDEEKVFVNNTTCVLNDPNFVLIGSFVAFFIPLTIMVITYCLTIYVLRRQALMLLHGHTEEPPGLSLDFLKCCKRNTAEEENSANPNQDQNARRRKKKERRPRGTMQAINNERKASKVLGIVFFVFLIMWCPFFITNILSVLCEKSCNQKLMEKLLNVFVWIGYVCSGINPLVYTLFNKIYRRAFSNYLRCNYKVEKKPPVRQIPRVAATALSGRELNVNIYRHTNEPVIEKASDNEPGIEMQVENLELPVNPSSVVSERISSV

[10] = test system: Rattus norvegicus; experiment: Compound was measured for its antipsychotic activity in the rat conditioned avoidance test, at a dose of 15 mg/kg administered perorally; type: functional; conditions: route oral
[11] = molecular target: 5-hydroxytryptamine receptor 1D (Homo sapiens) (UniProt P28221); experiment: Compound was measured for its binding affinity at 5-hydroxytryptamine 1D receptor at a concentration of 10 uM using [3H]5-HT as radioligand
[12] = test system: Rattus norvegicus; experiment: Compound was measured for its antipsychotic activity in the rat conditioned avoidance test at a dose of 15 mg/kg administered perorally; type: functional; conditions: route oral
[13] = molecular target: T1, 5-hydroxytryptamine receptor 1A; experiment: Binding affinity against 5-hydroxytryptamine 1A receptor
[14] = test system: Rattus norvegicus; experiment: Compound was measured for its antipsychotic activity in the rat conditioned avoidance test, at a dose of 15 mg/kg compound administered perorally; type: functional; conditions: route oral
[15] = molecular target: T2, D(3) dopamine receptor
[16] = molecular target: 5-hydroxytryptamine receptor 5B (Rattus norvegicus, UniProt P35365); experiment: Binding affinity against serotonin receptor
Sequence of 5-hydroxytryptamine receptor 5B (P35365 whole entry): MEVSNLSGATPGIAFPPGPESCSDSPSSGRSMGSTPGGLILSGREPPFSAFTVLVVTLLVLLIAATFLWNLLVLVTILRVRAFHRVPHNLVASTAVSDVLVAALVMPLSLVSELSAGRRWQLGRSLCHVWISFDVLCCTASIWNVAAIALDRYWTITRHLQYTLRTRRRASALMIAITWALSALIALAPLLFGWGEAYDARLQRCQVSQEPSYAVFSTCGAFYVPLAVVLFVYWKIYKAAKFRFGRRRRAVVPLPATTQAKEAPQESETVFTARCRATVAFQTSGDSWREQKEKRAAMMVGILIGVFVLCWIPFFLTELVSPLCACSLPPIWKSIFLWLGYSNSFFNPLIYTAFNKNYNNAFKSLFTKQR

T2 sequence (P35462 whole entry): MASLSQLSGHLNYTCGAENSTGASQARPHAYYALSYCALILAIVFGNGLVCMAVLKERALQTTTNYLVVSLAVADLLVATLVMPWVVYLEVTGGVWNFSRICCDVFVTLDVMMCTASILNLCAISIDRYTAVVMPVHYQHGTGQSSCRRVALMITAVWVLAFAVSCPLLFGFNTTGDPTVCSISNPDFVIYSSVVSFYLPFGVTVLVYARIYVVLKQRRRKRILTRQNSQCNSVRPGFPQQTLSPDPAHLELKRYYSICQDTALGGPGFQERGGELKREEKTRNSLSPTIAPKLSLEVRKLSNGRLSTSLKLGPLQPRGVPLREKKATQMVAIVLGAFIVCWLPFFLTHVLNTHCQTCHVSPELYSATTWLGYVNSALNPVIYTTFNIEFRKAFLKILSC
Sequence of 5-hydroxytryptamine receptor 1D (Homo sapiens) (P28221 whole entry): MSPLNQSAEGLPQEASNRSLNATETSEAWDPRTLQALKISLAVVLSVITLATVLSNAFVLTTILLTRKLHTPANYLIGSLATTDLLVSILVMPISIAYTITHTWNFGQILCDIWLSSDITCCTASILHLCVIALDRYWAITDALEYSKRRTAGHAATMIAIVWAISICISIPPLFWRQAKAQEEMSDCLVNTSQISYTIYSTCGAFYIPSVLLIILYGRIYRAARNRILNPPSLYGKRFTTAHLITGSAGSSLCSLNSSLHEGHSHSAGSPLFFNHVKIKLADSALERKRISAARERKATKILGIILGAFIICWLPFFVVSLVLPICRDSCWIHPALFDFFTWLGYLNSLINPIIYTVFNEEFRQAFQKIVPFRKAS
Sequence of 5-hydroxytryptamine receptor 1B (Homo sapiens) (P28222 whole entry): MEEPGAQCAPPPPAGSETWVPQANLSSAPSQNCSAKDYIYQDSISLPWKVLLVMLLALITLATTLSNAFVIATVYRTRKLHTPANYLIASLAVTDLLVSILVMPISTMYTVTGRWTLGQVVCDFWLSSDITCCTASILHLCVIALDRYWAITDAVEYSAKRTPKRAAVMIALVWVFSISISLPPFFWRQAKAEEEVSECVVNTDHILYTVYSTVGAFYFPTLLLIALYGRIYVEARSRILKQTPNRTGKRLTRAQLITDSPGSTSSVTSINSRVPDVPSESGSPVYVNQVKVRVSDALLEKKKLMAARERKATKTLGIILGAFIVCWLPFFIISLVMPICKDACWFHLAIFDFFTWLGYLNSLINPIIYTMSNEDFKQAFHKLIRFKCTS
Sequence of D(2) dopamine receptor (P14416 whole entry): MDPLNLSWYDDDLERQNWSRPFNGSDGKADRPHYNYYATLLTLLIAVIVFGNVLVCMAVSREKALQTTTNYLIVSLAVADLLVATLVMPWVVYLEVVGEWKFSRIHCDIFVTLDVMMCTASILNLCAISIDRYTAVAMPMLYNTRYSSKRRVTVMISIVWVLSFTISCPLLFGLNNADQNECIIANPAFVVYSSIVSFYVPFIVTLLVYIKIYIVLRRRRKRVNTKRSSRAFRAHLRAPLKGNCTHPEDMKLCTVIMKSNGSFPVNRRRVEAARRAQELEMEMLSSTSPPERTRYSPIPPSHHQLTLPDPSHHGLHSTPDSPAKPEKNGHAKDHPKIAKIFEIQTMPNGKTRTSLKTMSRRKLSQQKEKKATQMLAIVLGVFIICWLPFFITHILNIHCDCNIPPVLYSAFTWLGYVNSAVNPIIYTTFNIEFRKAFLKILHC
Sequence of Serotonin 2 (5-HT2) receptor (Homo sapiens) (P28223 whole entry, looked up, one chain of several): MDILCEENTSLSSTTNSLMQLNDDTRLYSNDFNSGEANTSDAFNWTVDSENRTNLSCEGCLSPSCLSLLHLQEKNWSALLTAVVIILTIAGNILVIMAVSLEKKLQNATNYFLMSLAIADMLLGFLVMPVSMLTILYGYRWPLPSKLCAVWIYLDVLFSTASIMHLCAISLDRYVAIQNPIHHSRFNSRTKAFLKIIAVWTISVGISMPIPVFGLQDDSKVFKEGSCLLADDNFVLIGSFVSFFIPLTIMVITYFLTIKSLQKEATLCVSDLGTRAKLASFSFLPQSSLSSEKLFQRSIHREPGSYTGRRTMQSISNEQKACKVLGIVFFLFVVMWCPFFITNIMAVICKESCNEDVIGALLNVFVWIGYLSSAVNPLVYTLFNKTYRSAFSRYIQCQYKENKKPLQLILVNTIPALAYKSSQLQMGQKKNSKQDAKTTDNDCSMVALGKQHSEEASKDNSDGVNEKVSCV
Sequence of Serotonin 2 (5-HT2) receptor (Homo sapiens) (P41595 whole entry, looked up, one chain of several): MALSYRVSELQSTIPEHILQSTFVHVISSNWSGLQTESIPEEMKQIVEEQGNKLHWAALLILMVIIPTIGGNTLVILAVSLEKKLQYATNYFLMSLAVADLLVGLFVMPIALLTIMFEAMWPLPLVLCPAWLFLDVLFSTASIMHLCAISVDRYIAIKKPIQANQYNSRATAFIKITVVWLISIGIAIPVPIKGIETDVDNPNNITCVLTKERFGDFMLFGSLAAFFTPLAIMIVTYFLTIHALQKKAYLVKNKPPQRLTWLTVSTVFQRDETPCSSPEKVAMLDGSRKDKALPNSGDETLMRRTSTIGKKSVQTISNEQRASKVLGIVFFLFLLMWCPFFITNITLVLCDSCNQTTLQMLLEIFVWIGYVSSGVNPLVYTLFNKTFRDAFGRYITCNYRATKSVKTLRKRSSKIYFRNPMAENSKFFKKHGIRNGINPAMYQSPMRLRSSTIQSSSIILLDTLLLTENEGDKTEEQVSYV
Sequence of D(1A) dopamine receptor (Homo sapiens) (P21728 whole entry): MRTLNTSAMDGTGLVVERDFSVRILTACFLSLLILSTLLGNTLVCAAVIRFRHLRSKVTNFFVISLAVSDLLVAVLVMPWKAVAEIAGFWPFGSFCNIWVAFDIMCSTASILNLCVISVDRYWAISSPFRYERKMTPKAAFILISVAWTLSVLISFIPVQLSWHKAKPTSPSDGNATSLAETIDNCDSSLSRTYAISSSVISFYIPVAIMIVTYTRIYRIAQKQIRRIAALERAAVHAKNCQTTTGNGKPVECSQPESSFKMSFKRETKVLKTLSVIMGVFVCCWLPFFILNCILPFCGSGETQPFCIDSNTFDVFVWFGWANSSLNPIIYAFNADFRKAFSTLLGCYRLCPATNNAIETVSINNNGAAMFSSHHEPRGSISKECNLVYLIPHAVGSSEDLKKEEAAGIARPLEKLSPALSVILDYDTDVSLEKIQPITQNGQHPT

SMILES: O=C(c1cccc(CN2CCN3c4ccccc4OCC3C2)c1)N1CCc2ccccc21 (stereo not drawn)
- inhibition [1]: 12.5%
- inhibition [2]: 7.5%
- Ki [3]: 0.0065 µM
- Ki [4]: > 1 µM
- inhibition [5]: 54%
- inhibition [6]: 42.4%
- Ki [7]: > 1 µM
- inhibition [8]: 8.1%
- inhibition [9]: -2.8%
- inhibition in vivo at 15 mg/kg [10]: -20%
- inhibition [11]: 58.9%

SMILES: O=C(c1cccc(CN2CCc3c([nH]c4ccccc34)C2)c1)N1CCCCC1
- inhibition [1]: 13.6%
- inhibition [2]: 18%
- Ki [3]: 0.013 µM
- Ki [4]: 0.374 µM
- inhibition [5]: 27%
- inhibition [6]: 23.7%
- Ki [7]: 0.036 µM
- inhibition [8]: 1%
- inhibition [9]: 5.5%
- inhibition in vivo at 15 mg/kg [10]: -74%
- inhibition [11]: 74.7%

SMILES: O=C(c1cccc(CN2CCc3c([nH]c4ccccc34)C2)c1)N1CCc2ccccc21
- inhibition [1]: 22.6%
- inhibition [2]: 29.9%
- Ki [3]: 0.0092 µM
- Ki [4]: > 1 µM
- inhibition [5]: 56%
- inhibition [6]: 40.8%
- Ki [7]: 0.0029 µM
- inhibition [8]: 8.8%
- inhibition [9]: 8.7%
- inhibition in vivo at 15 mg/kg [10]: -37%
- inhibition [11]: 86.1%

SMILES: O=C(c1cccc(CN2CCN3c4ccccc4OCC3C2)c1)N1CCCCC1 (stereo not drawn)
- inhibition [1]: 5.1%
- inhibition [2]: 7.5%
- Ki [3]: 0.012 µM
- inhibition in vivo at 15 mg/kg [12]: -49%
- Ki [4]: > 1 µM
- inhibition [5]: 64%
- inhibition [6]: 14.7%
- Ki [7]: 0.2 µM
- inhibition [8]: 3.4%
- inhibition [9]: 5.6%
- inhibition [11]: 63.8%

SMILES: CCCN1CCC[C@@H]2c3cc(O)ccc3CC[C@H]21
- Ki [13]: 0.00387 µM

- Ki [3]: 0.0034 µM
- Ki [7]: 0.0017 µM
SMILES: CC(C)Oc1ccccc1N1CCN(Cc2cccc(C(=O)N3CCc4ccccc43)c2)CC1
- inhibition in vivo at 15 mg/kg [14]: -96%

SMILES: CCCCCCN1CCc2c([nH]c3ccccc23)C1
- Ki [13]: 0.079 µM

SMILES: CC(C)Oc1ccccc1N1CCN(Cc2cccc(C(=O)N3CCCCC3)c2)CC1 [MAZAPERTINE]
- Ki [15]: 0.0018 µM

- Ki [13]: 0.074 µM
SMILES: O=C1c2ccccc2C(=O)N1CCCCN1CCn2c(cc3ccccc32)C1

SMILES: FC(F)(F)c1ccc2c(c1)N1CCNCC1CC2 (stereo not drawn)
- Ki [16]: 0.067 µM

- Ki [13]: 0.00089 µM
SMILES: COc1cccc2c1C1CCN(CCCN3C(=O)c4ccccc4S3(=O)=O)C[C@H]1C2 (stereo partly drawn)
